#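 Tested at 5 concentrations; 48 h exposure; 96-well plates; endpoints linearly interpolated, else capped at highest concentration. TGI is the concentration that stops growth completely.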
# Key:
# Test in all cases: inhibition of tumour cell growth, NCI panel, 48 h
# [1] = tested on: NCI-H226 lung
# [2] = tested on: HCT-116 colon
# [3] = tested on: M14 melanoma
# [4] = tested on: SK-OV-3 ovarian
# [5] = tested on: ACHN renal
# [6] = tested on: MCF7 breast
# [7] = tested on: T-47D breast
# [8] = tested on: SR leukemia
# [9] = tested on: RPMI-8226 leukemia
# [10] = tested on: OVCAR-4 ovarian
# [11] = tested on: SW-620 colon
# [12] = tested on: OVCAR-5 ovarian
# [13] = tested on: K-562 leukemia
# [14] = tested on: MDA-MB-231 breast
# [15] = tested on: 786-0 renal
# [16] = tested on: A498 renal
# [17] = tested on: KM12 colon
# [18] = tested on: U251 CNS
# [19] = tested on: SK-MEL-28 melanoma
# [20] = tested on: A549 NSCLC
# [21] = tested on: OVCAR-3 ovarian
# [22] = tested on: HOP-62 NSCLC
# [23] = tested on: MDA-MB-435
# [24] = tested on: CAKI-1 renal
# [25] = tested on: LOX IMVI melanoma
# [26] = tested on: UACC-257 melanoma
# [27] = tested on: HCC-2998 colon
# [28] = tested on: COLO 205 colon
# [29] = tested on: RXF 393 renal
# [30] = tested on: SNB-75 CNS
# [31] = tested on: UACC-62 melanoma
# [32] = tested on: SN12C renal
# [33] = tested on: MOLT-4 leukemia
# [34] = tested on: NCI-H522 lung
# [35] = tested on: IGROV1 ovarian
# [36] = tested on: TK-10 renal
# [37] = tested on: BT-549 breast
# [38] = tested on: EKVX NSCLC
# [39] = tested on: HCT-15 colon
# [40] = tested on: NCI-H460 lung
# [41] = tested on: HT29 colon
# [42] = tested on: UO-31 renal
# [43] = tested on: SK-MEL-2 melanoma
# [44] = tested on: DU-145 prostate
# [45] = tested on: CCRF-CEM leukemia
# [46] = tested on: SNB-19 CNS
# [47] = tested on: SF-268 CNS
# [48] = tested on: MALME-3M melanoma
# [49] = tested on: MDA-N
# [50] = tested on: SK-MEL-5 melanoma
# [51] = tested on: HS 578T breast
# [52] = tested on: SF-295 CNS
# [53] = tested on: NCI/ADR-RES ovarian
# [54] = tested on: PC-3 prostate
# [55] = tested on: OVCAR-8 ovarian
# [56] = tested on: SF-539 CNS
# [57] = tested on: NCI-H23 lung
smiles,measurement,setting,value
O=C1c2sc(-c3ccc(F)cc3)cc2-n2cccc21,TGI,[1],82.2 µM
same,TGI,[2],58.7 µM
same,TGI,[3],> 100 µM
same,TGI,[4],63 µM
same,TGI,[5],> 100 µM
same,TGI,[6],> 100 µM
same,TGI,[7],> 100 µM
same,TGI,[8],> 100 µM
same,TGI,[9],> 100 µM
same,TGI,[10],> 100 µM
same,TGI,[11],> 100 µM
same,TGI,[12],> 100 µM
same,TGI,[13],74.2 µM
same,TGI,[14],86.3 µM
same,TGI,[15],32.2 µM
same,TGI,[16],62.8 µM
same,TGI,[17],> 100 µM
same,TGI,[18],40.2 µM
same,TGI,[19],> 100 µM
same,TGI,[20],> 100 µM
same,TGI,[21],> 100 µM
same,TGI,[22],37.3 µM
same,TGI,[23],> 100 µM
same,TGI,[24],34.5 µM
same,TGI,[25],> 100 µM
same,TGI,[26],> 100 µM
same,TGI,[27],> 100 µM
same,TGI,[28],> 100 µM
same,TGI,[29],73.1 µM
same,TGI,[30],43.7 µM
same,TGI,[31],> 100 µM
same,TGI,[32],49.6 µM
same,TGI,[33],> 100 µM
same,TGI,[34],> 100 µM
same,TGI,[35],38.3 µM
same,TGI,[36],50.7 µM
same,TGI,[37],> 100 µM
same,TGI,[38],> 100 µM
same,TGI,[39],> 100 µM
same,TGI,[40],> 100 µM
same,TGI,[41],> 100 µM
same,TGI,[42],> 100 µM
same,TGI,[43],> 100 µM
same,TGI,[44],> 100 µM
same,TGI,[45],> 100 µM
same,TGI,[46],39.6 µM
same,TGI,[47],52.1 µM
same,TGI,[48],> 100 µM
same,TGI,[49],> 100 µM
same,TGI,[50],> 100 µM
same,TGI,[51],62.7 µM
same,TGI,[52],93.9 µM
same,TGI,[53],> 100 µM
same,TGI,[54],> 100 µM
same,TGI,[55],> 100 µM
Cc1nnc2sc(Cl)nn12,TGI,[1],86.2 µM
same,TGI,[2],26.2 µM
same,TGI,[3],28.1 µM
same,TGI,[4],31 µM
same,TGI,[5],54.8 µM
same,TGI,[6],29.5 µM
same,TGI,[7],73.4 µM
same,TGI,[56],47.1 µM
same,TGI,[9],> 100 µM
same,TGI,[10],34.3 µM
same,TGI,[11],16.6 µM
same,TGI,[12],44.5 µM
same,TGI,[13],72.9 µM
same,TGI,[14],54.4 µM
same,TGI,[15],86.8 µM
same,TGI,[16],> 100 µM
same,TGI,[17],28.6 µM
same,TGI,[18],31.4 µM
same,TGI,[19],34.2 µM
same,TGI,[20],72.8 µM
same,TGI,[21],33.6 µM
same,TGI,[22],96 µM
same,TGI,[23],20.2 µM
same,TGI,[24],43.6 µM
same,TGI,[25],28.5 µM
same,TGI,[27],31.6 µM
same,TGI,[28],29.9 µM
same,TGI,[30],> 100 µM
same,TGI,[31],18.9 µM
same,TGI,[32],> 100 µM
same,TGI,[33],29.3 µM
same,TGI,[34],23.9 µM
same,TGI,[35],30.7 µM
same,TGI,[36],68.5 µM
same,TGI,[37],46.7 µM
same,TGI,[38],43.9 µM
same,TGI,[39],45.6 µM
same,TGI,[40],37.4 µM
same,TGI,[41],32.9 µM
same,TGI,[42],74 µM
same,TGI,[43],90.3 µM
same,TGI,[44],> 100 µM
same,TGI,[45],26.4 µM
same,TGI,[46],> 100 µM
same,TGI,[57],34.8 µM
same,TGI,[48],85.6 µM
same,TGI,[49],48.9 µM
same,TGI,[50],25.2 µM
same,TGI,[51],> 100 µM
same,TGI,[52],36.2 µM
same,TGI,[53],> 100 µM
same,TGI,[54],47.2 µM
same,TGI,[55],> 100 µM
